Test results reported in PubChem BioAssay (NCI).
Several values for one entry are separate records, joined by “and”; a condition that tells them apart may be missing. Equal entries are not always repeated.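 48-hour exposure; five concentrations; linearly interpolated endpoints. GI50: concentration for 50% inhibition of growth. TGI denotes the concentration required for complete inhibition of growth.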

What was measured:
Assay in all cases: inhibition of tumour cell growth, NCI panel, 48 h
[1] = system: SK-MEL-5 melanoma
[2] = system: MALME-3M melanoma
[3] = system: NCI-H460 lung
[4] = system: COLO 205 colon
[5] = system: LXFL 529 NSCLC
[6] = system: MCF7 breast
[7] = system: DMS 114 small cell lung
[8] = system: SK-OV-3 ovarian
[9] = system: 786-0 renal
[10] = system: SNB-78 CNS
[11] = system: SNB-75 CNS

SMILES	GI50 [1]	TGI [1]	GI50 [2]	TGI [2]	GI50 [3]	TGI [3]	GI50 [4]	TGI [4]	TGI [5]	TGI [6]	GI50 [7]	TGI [7]	TGI [8]	TGI [9]	TGI [10]	GI50 [11]	TGI [11]
COc1cc(Cc2nccc3cc(OC)c(OC)cc23)c(C(C)=O)cc1OC	25.6 µM and 130 µM	139 µM and 486 µM	72.1 µM and 22.6 µM	64.1 µM and 158 µM	52.9 µM and 85.5 µM and 340 µM	300 µM and > 750 µM	5.36 µM	40.1 µM and 300 µM	> 750 µM	300 µM	3.02 µM	300 µM and 164 µM	254 µM	> 750 µM	214 µM	29.4 µM	300 µM and > 750 µM
CN(C)CCC1(C2=CCCC2)CC/C(=C\c2ccc(Cl)cc2)C1=O (centres undefined)	–	4.07 µM	–	15.4 µM	–	26.9 µM	–	28.3 µM	21.4 µM	–	–	21.8 µM	19.6 µM	15.2 µM	26.9 µM	–	20.4 µM
COC(=O)[C@@]12C(=O)C=CC(=O)C1C1C(=CC2C)OC2OC3(CCCCC3)OC21 (some centres undefined)	–	33.6 µM	–	37.8 µM	–	35.7 µM	–	28.4 µM	26.3 µM	–	–	31.4 µM	33.9 µM	32.4 µM	42.3 µM	–	33.2 µM
Cn1cc(C2(C)CC(C)(C)c3c2n(C)c2ccccc32)c2ccccc21 (centres undefined)	–	> 100 µM	–	> 100 µM	–	> 100 µM	–	> 100 µM	> 100 µM	–	–	> 100 µM	> 100 µM	> 100 µM	> 100 µM	–	> 100 µM
COc1ccc(C2=C(Cl)c3cc(OC)c(OC)cc3C2Cl)cc1 (centres undefined)	–	27.5 µM	–	46.9 µM	–	27.4 µM	–	33.4 µM	28.4 µM	22.8 µM	–	31.8 µM	34.3 µM	28.6 µM	49.3 µM	–	8.46 µM
CCCCCCCCCCCCCCCC(=O)OCC(C[As](=O)(O)O)OC(=O)CCCCCCCCCCCCCCC (centres undefined)	–	> 100 µM	–	> 100 µM	–	> 100 µM	–	> 100 µM	> 100 µM	> 100 µM	–	> 100 µM	> 100 µM	> 100 µM	80.8 µM	–	> 96.7 µM
